Compound | melting point
Cc1cc(C)n(C(=O)CCNc2ccc(S(=O)(=O)Nc3cc(C)on3)cc2)n1 [Compound 9, 4-((3-(3,5-Dimethyl-1H-pyrazol-1-yl)-3-oxopropyl)amino)-N-(5-methylisoxazol-3-yl)benzenesulfonamide] | 144 to 145 °C
Cc1cc(NS(=O)(=O)c2ccc(NCCc3n[nH]c(=O)n3-c3ccccc3)cc2)no1 [Compound 12, N-(5-methylisoxazol-3-yl)-4-((2-(5-oxo-4-phenyl-4,5-dihydro-1H-1,2,4-triazol-3-yl)ethyl)amino)-benzenesulfonamide] | 188 to 189 °C
Cc1cc(NS(=O)(=O)c2ccc(N(CCC(=O)O)C(N)=S)cc2)no1 [Compound 6a, 3-(1-(4-(N-(5-methylisoxazol-3-yl)sulfamoyl)phenyl)thioureido)propanoic acid] | 182 to 183 °C
Cc1cc(NS(=O)(=O)c2ccc(NCCC(=O)O)cc2)no1 [Compound 2, 3-((4-(N-(5-methylisoxazol-3-yl)sulfamoyl)phenyl)amino)propanoic acid] | 188 to 189 °C
Cc1cc(NS(=O)(=O)c2ccc(NCCC(=O)NNC(=O)Nc3ccccc3)cc2)no1 [Compound 10, 2-(3-((4-(N-(5-methylisoxazol-3-yl)sulfamoyl)phenyl)amino)propanoyl)-N-phenylhydrazine-1-carboxamide] | 204 to 205 °C
Cc1cc(NS(=O)(=O)c2ccc(NC=CC(=O)Nn3c(C)ccc3C)cc2)no1 [Compound 8, N-(2,5-dimethyl-1H-pyrrol-1-yl)-3-((4-(N-(5-methylisoxazol-3-yl)sulfamoyl)phenyl)amino)propenamide] | 118 to 119 °C
Cc1cc(NS(=O)(=O)c2ccc(N3CCC(=O)NC3=S)cc2)no1 [Compound 6, N-(5-methylisoxazol-3-yl)-4-(4-oxo-2-thioxotetrahydropyrimidin-1(2H)-yl)benzenesulfonamide] | 240 to 241 °C
COC(=O)CCNc1ccc(S(=O)(=O)Nc2cc(C)on2)cc1 [Compound 3, Methyl 3-((4-(N-(5-methylisoxazol-3-yl)sulfamoyl)phenyl)amino)propanoate] | 148 to 149 °C
Cc1cc(NS(=O)(=O)c2ccc(NC=CC(=O)Nc3ccc(S(N)(=O)=O)cc3)cc2)no1 [Compound 7, 3-((4-(N-(5-methylisoxazol-3-yl)sulfamoyl)phenyl)amino)-N-(4-sulfamoylphenyl)propenamide] | 213 to 214 °C
Cc1cc(NS(=O)(=O)c2ccc(NCCc3n[nH]c(=S)n3-c3ccccc3)cc2)no1 [Compound 13, N-(5-methylisoxazol-3-yl)-4-((2-(4-phenyl-5-thioxo-4,5-dihydro-1H-1,2,4-triazol-3-yl)ethyl)amino)-benzenesulfonamide] | 222 to 223 °C
Cc1cc(NS(=O)(=O)c2ccc(NCCC(=O)NNC(=S)Nc3ccccc3)cc2)no1 [Compound 11, 2-(3-((4-(N-(5-methylisoxazol-3-yl)sulfamoyl)phenyl)amino)propanoyl)-N-phenylhydrazine-1-carbothioamide] | 183 to 184 °C
Cc1cc(NS(=O)(=O)c2ccc(NCCC(=O)NN=C3C(=O)Nc4ccccc43)cc2)no1 [Compound 14, N-(5-methylisoxazol-3-yl)-4-((3-oxo-3-(2-(2-oxoindolin-3-ylidene)hydrazineyl)propyl)amino)-benzenesulfonamide] | 209 to 210 °C

The next lines start with the values.

melting point | Compound
185 to 186 °C | Cc1cc(NS(=O)(=O)c2ccc(NCCC(=O)NN=Cc3ccco3)cc2)no1 [Compound 16a, 4-((3-(2-(Furan-2-ylmethylene)hydrazineyl)-3-oxopropyl)amino)-N-(5-methylisoxazol-3-yl)benzene-sulfonamide]
193 to 194 °C | Cc1cc(NS(=O)(=O)c2ccc(NCCC(=O)NN=Cc3ccccc3O)cc2)no1 [Compound 15b, 4-((3-(2-(2-Hydroxybenzylidene)hydrazineyl)-3-oxopropyl)amino)-N-(5-methylisoxazol-3-yl)benzene-sulfonamide]
213 to 214 °C | Cc1cc(NS(=O)(=O)c2ccc(NCCC(=O)NN=Cc3ccc(F)cc3)cc2)no1 [Compound 15d, 4-((3-(2-(4-Fluorobenzylidene)hydrazineyl)-3-oxopropyl)amino)-N-(5-methylisoxazol-3-yl)benzene-sulfonamide]
215 to 216 °C | Cc1cc(NS(=O)(=O)c2ccc(NCCC(=O)NN=Cc3cccs3)cc2)no1 [Compound 16c, N-(5-methylisoxazol-3-yl)-4-((3-oxo-3-(2-(thiophen-2-ylmethylene)hydrazineyl)propyl)amino)-benzenesulfonamide]
199 to 200 °C | Cc1cc(NS(=O)(=O)c2ccc(NCCC(=O)NN=Cc3ccccc3)cc2)no1 [Compound 15a, 4-((3-(2-Benzylidenehydrazineyl)-3-oxopropyl)amino)-N-(5-methylisoxazol-3-yl)benzenesulfonamide]
210 to 211 °C | Cc1cc(NS(=O)(=O)c2ccc(NCCC(=O)NN=Cc3ccc(Cl)cc3)cc2)no1 [Compound 15f, 4-((3-(2-(4-Chlorobenzylidene)hydrazineyl)-3-oxopropyl)amino)-N-(5-methylisoxazol-3-yl)benzene-sulfonamide]
208 to 209 °C | Cc1cc(NS(=O)(=O)c2ccc(NCCC(=O)NN=Cc3cccc([N+](=O)[O-])c3)cc2)no1 [Compound 15h, 4-((3-(2-(3-Nitrobenzylidene)hydrazineyl)-3-oxopropyl)amino)-N-(5-methylisoxazol-3-yl)benzene-sulfonamide]
218 to 219 °C | Cc1cc(NS(=O)(=O)c2ccc(NCCC(=O)NN=Cc3ccc(O)cc3)cc2)no1 [Compound 15c, 4-((3-(2-(4-Hydroxybenzylidene)hydrazineyl)-3-oxopropyl)amino)-N-(5-methylisoxazol-3-yl)benzene-sulfonamide]
206 to 207 °C | COc1ccc(C=NNC(=O)CCNc2ccc(S(=O)(=O)Nc3cc(C)on3)cc2)cc1 [Compound 15g, 4-((3-(2-(4-Methoxybenzylidene)hydrazineyl)-3-oxopropyl)amino)-N-(5-methylisoxazol-3-yl)benzene-sulfonamide]
210 to 211 °C | Cc1cc(NS(=O)(=O)c2ccc(NCCC(=O)NN=Cc3cc([N+](=O)[O-])ccc3Cl)cc2)no1 [Compound 15i, 4-((3-(2-(2-Chloro-5-nitrobenzylidene)hydrazineyl)-3-oxopropyl)amino)-N-(5-methylisoxazol-3-yl)benzenesulfonamide]
214 to 215 °C | Cc1cc(NS(=O)(=O)c2ccc(NCCC(=O)NN=Cc3ccc([N+](=O)[O-])cc3)cc2)no1 [Compound 15j, 4-((3-(2-(4-Nitrobenzylidene)hydrazineyl)-3-oxopropyl)amino)-N-(5-methylisoxazol-3-yl)benzene-sulfonamide]

Reference: PMC10035904, “Synthesis of novel sulphamethoxazole derivatives and exploration of their anticancer and antimicrobial properties” (PLOS ONE, 2023)
